Test results reported in patent US8236761B2, “C-Met receptor regulation by angiotensin IV (AT4) receptor ligands” (Washington State University Research Foundation, priority 2006, dated 2012).
Non-standard residues stand in square brackets, D forms with d. No end group written: not given here. Nle = CCCC[C@H](N)C(=O)O

Key:
[1] = system: MDCK cells; test: HGF-induced MDCK cell scattering (coverslip assay); format: cell-based, canine
Protocol: FIG. 8A: Confluent MDCK cells on coverslips were treated with HGF (110 pM), or HGF (110 pM)+Norleual (100 pM) for 48 hours. Digital images of top, bottom, left, and right sectors were acquired and the scattering of cells In each digital image was scored in blinded fashion and normalized to control scores. The difference between HGF and HGF+Norleual groups was significant (*p=0.0245, n=3). Error bars indicate±SEM. FIG. 8B: MDCK cells were plated on 6 mm diameter coverslips in DMEM 10% FBS and grown to 100% confluency. The coverslips were then transferred to fresh 6 well plates and the cells were serum-deprived for 24 hours to synchronize the cells in the same growth state. Thereafter, the 20 ng/ml of HGF alone and in the presence of 10^−10 M Norleual in a 1% FBS DMEM was added to the cells. […] This ring was photographed and loaded on to NIH image J. Using NIH image J, the pixel count was determined for each ring. […]
Scattering assay. […] Scattering was scored in blinded fashion by comparison to a set of calibration scattering images by two investigators. […]
To explore the physiological significance of the angiotensin-like factor Norleual's ability to depress c-Met signaling, Norleual's effect on HGF induced cell scattering of Madin-Darby canine kidney (MDCK) cells was assessed with the coverslip assay (Miao et al., 2003 J. Cell Biol. 162: 1281-1292). […]

[2] = system: HUVECs; test: Extracellular matrix related gene microarray in HUVECs; format: cell-based, human; conditions: 8 days, 1 pM
Protocol: Angiotensin-like factors as candidate c-Met receptor ligands were tested for the ability to modulate expression of extracellular matrix-related proteins in human umbilical vein endothelial cells (HUVECs) by gene microarray. Briefly, HUVECs were treated for 8 days in the presence or absence of test compounds at a concentration of 1 pM; Norleual (Compound 2, SEQ ID NO:43) was used as an exemplary angiotensin-like factor. RNA was harvested and transcriptional activities of 96 extracellular matrix related genes were assessed using gene microarrays.

[3] = system: +SA murine mammary cancer cells; test: Angiogenesis-related gene microarray of +SA murine mammary tumors; format: in vivo, Balb/c mice; conditions: 28 days intraperitoneal osmotic pump, 1 mg/kg/day
Protocol: Angiotensin-like factor Norleual (COMPOUND 2) was tested for its ability to modulate angiogenic genes in murine mammary tumors. Briefly, Balb/c mice grafted with +SA murine mammary cancer cells were treated with Compound 2. After 28 days of intraperitoneal administration via an osmotic pump (at a dose of 1 mg/kg/day), primary tumors were harvested and RNA was collected. Transcriptional activities of 96 angiogenesis-related genes were assessed using gene microarrays.

[4] = target: c-Met (Homo sapiens, UniProt P08581); test: Tyrosine kinase receptor protein array in HUVECs; format: cell-based; set-up: endogenous in cells; host or cells: HUVEC; conditions: HUVECs treated for 5 minutes
c-Met, sequence (P08581 25-1390): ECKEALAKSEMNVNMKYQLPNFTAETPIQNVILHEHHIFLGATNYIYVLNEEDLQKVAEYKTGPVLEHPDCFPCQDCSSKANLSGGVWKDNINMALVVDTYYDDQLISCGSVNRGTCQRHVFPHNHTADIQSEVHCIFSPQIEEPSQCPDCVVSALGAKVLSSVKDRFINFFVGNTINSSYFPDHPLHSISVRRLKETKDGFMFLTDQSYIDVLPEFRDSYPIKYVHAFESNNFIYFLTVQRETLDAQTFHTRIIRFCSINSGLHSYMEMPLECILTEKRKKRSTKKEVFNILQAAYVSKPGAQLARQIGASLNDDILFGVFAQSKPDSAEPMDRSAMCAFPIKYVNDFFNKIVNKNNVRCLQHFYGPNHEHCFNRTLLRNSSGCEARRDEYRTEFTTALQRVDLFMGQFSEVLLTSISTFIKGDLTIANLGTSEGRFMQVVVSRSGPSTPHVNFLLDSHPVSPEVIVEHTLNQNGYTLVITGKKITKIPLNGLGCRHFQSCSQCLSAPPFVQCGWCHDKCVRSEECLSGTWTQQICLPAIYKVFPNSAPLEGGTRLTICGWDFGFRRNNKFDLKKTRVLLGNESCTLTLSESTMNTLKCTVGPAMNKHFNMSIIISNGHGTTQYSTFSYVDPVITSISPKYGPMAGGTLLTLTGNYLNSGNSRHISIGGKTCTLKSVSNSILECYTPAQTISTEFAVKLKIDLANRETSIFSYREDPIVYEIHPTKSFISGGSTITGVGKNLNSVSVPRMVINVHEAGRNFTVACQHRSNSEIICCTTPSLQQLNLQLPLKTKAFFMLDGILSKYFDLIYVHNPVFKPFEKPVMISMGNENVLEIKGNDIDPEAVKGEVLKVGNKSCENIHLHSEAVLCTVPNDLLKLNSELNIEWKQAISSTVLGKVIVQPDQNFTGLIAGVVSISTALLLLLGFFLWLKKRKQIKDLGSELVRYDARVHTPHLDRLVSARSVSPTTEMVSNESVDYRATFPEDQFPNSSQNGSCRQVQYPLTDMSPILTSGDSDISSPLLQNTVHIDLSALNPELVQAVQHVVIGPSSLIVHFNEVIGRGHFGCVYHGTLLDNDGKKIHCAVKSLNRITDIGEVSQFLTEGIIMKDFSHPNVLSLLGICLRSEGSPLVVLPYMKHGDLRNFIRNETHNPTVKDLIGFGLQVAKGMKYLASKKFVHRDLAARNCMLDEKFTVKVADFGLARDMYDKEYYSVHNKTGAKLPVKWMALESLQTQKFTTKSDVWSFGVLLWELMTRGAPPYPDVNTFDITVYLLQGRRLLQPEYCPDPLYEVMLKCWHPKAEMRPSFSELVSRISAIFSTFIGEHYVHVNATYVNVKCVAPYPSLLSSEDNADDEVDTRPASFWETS
Protocol: Screening of a ligand for its ability to inhibit c-Met receptor phosphorylation was tested by tyrosine kinase receptor protein array. Briefly, human umbilical vein endothelial cells (HUVECs) grown to confluence were treated for 5 minutes with COMPOUND 2 (SEQ ID NO:43). Cells were then lysed and total protein collected.

[5] = system: B16-F10 murine melanoma cells; test: B16-F10 scratch wound closure assay; format: cell-based; conditions: six hours after scratch
Protocol: Scratch Assay. Confluent B16-F10 cells in 48 well plates were scratched with a 200 μl pipette tip. Wells were treated with vehicle, HGF, and/or Norleual. Photos were taken at various time points. Photos were graded by two investigators.
See Example 1 for Materials and Methods. Norleual was applied to HGF treated B16-F10 murine melanoma cells in a scratch wound assay. HGF accelerated the wound closure, however Norleual was able to attenuate HGF stimulated closure six hours after scratch (FIG. 11A).

With “Nle-Tyr-Leu-ψ-His-Pro-Phe ([Nle]YLHPF; also: reduced peptide bond psi(CH2NH2) between Leu and His) [Norleual]” the “HGF-induced MDCK cell scattering” value ([1]; HGF 110 pM + Norleual 100 pM, 48 hours, FIG. 8A) was “inhibited”, the “Hepatocyte growth factor-dependent cell scattering” value ([1]; HGF 20 ng/ml, COMPOUND 2 10^−10M, FIG. 7) was “inhibited” and the “Change in gene expression versus control: CD44, catenin, catenin β, catenin δ1, MMP-1, PAI-1, thrombospondin 1, integrin α-2” value [2] was “at least two fold”. The “Change in gene expression versus control: Adamts 1, CD36, Connective tissue growth factor, PECAM 1, Cxcl 4, restin, Ccl 2, TNF-α, VEGF-α, VEGF-β” value [3] was “at least five-fold”, the “c-Met phosphorylation in receptor protein array” value [4] was “inhibited” and the “HGF stimulated scratch wound closure” value [5] was “attenuate”.
